Data reported in patent US20240043514A1, “NOVEL METHOD FOR PRODUCING ANTIBODIES” (TSINGHUA UNIVERSITY, priority 2017, published 2024).

Columns and labels:
TLR9 = target: T1, TLR9 (Homo sapiens, UniProt Q9NR96); assay: Inhibition of CpG2006 (TLR9 agonist) by E6446; format: cell-based; conditions: data not shown
T1 sequence (Q9NR96 26-1032): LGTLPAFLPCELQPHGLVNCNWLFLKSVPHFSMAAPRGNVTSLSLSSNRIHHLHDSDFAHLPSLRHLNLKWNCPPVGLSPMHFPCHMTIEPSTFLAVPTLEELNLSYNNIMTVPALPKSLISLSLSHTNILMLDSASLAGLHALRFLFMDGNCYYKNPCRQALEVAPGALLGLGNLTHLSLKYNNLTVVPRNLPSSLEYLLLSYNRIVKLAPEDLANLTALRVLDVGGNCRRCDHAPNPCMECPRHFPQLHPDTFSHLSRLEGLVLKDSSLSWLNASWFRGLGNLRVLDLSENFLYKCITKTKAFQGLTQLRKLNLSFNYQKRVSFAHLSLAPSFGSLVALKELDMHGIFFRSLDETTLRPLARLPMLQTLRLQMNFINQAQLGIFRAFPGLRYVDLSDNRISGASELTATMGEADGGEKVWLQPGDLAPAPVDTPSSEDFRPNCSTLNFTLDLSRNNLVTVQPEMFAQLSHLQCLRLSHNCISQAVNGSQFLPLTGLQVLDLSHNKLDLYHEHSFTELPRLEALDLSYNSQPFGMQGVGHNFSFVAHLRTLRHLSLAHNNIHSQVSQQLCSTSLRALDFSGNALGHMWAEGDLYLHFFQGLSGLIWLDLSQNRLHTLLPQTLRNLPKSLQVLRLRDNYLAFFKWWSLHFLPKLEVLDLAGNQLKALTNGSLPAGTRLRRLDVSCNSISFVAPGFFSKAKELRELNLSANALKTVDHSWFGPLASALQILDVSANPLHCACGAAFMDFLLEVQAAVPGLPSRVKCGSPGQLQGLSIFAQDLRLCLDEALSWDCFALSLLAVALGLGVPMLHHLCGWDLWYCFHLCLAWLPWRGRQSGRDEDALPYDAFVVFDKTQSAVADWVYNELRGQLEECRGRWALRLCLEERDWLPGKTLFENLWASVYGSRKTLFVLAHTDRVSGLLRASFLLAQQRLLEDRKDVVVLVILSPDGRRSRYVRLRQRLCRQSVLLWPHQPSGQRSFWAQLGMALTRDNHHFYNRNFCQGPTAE
Description: (§1) E6446 dihydrochloride (E6446-HCL), a synthetic nucleic acid-sensing TLRs antagonist. It's IC50 for CpG2006 (TLR9 agonist) was in the range of 0.01-0.03 uM (data not shown). But it required 2-8 uM (a 100-fold higher concentration) to inhibit the effect of R848 (TLR7/8 agonist) (data not shown).

PBMCs = assay: In vitro immunization (IVI) of PBMCs, antigen-specific IgG/IgM production by ELISA; format: cell-based, human
Description: PBMCs were washed and diluted with PIV culture medium. Cell density was adjusted to 1*10^^7 cells/ml, treateder with 0.25 mM LLME for about 20 min. Discarded supernatant, and re-suspended cell with PIV culture medium. Adjusted cell density to 9*10^^5 cells/ml. […] Cultured the tissue for 7 days at 37° C., 5% CO2. Changed half of the medium and added factor cocktail on day 7. Cultured the cells for 7-21 days at 37° C., 5% CO2. Collected the supernatant on day 7, day 14, or day 21 for analysis of antibody production by ELISA, whereas the pellets are used for testing gene expression by PCR or RT-PCR. The collected cells were also tested in ELISpot assay for FACS analysis.
Exemplary IVI steps with addition of stimulate factors: • 1. Prepared PBMCs and treat them with LLME. • 2. […] Collected the cells and plate them into 96-well plate at a density of 6*10^4/well. • 4. […] The IgG and IgM level was examined with ELISA assay.
After day7 or day14 with addition of cytokines or antibody-enhancing composition and antigens, supernatants were harvested and added to antigen OVA-coated plates. After 2 hr incubation, a HRP-conjugated anti-human IgG or anti-human IgM was added, the amount of antigen-specific antibody was measured using TMB as substrate. The data represents the mean of 2 replicates; error bars represent SD. One representative data of 3 separate experiments is shown.
Plates were coated with antigen at 5 μg/ml overnight at 4° C. and washed them in PBST (containing 0.5% Tween-20). The plates were blocked with 5% BSA before addition of cell culture supernatants and horseradish peroxidase (HRP)-conjugated detection antibodies (dilutions: 1 in 2,500 for HRP-conjugated IgG-specific antibody (Jackson) and HRP-conjugated IgM-specific antibody. TMB substrates solution was used for measurement. […]
To further test effects of other cytokine or molecules on antibody production, a synthesized TLR7/8 agonist (50 nM and 500 nM) was added to the IVI system in the presence of antigen OVA (2 μg/ml).
An exemplary cytokine, IL1β, was tested. PBMCs were incubated in vitro with OVA, basic, and either some of the known stimulating factors ICOS, CD40L, TLR7/8 agonists or IL1β (in different doses) (1.5*10^^5 cell/well, 96 well plate). After 7 or 14 days, supernatants were harvested, and IgG/IgM antibody production was measured by ELISA assay.

[1] = tested on: Follicular dendritic cells (FDCs); assay: Flow cytometry of follicular dendritic cells (CD3-CD19-CD21+/CD35+) in PBMCs; format: cell-based, human; conditions: high concentration of E6446 (10 uM), with TLR7/8 agonist
Description: FIGS. 12A-12G show the interactive effects between synthesized TLR7/8 agonist and TLR9 antagonist in stimulating anti-OVA antibody production in PBMCs. At low concentrations (0.02-0.2 uM), the E6446 enhanced the effect of synthesized TLR7/8, whereas at a high concentration (10 uM), E6446 inhibited this effect. Enzyme-linked immunosorbent assay (ELISA) analysis of OVA-specific antibodies of IgG (FIGS. 12A and 12D) and IgM (FIGS. 12B and 12E) responses were performed 7 days or 14 days after stimulant incubation. Cell proliferation (FIGS. 12C and 12F) was assayed by CellTiter-glo kit. Cells were harvested and tested by Flow cytometry (G). Follicular dendritic cells (FDCs) cells were gated as CD3^−CD19^−CD21^+/CD35^+ cells. Note. CD35 and CD21 are dendritic cell (DC) markers which may represent two subpopulations of DCs. The CD21-sub-type is inhibited by high concentration of E6446. […] The data represented the mean of 3 replicates; error bars represented SD. […]

TLR7/8 = assay: Inhibition of the effect of R848 (TLR7/8 agonist) by E6446; format: cell-based
Description: as §1

[2] = tested on: AICDA, BLIMP-1, RAG expression; assay: Quantitative RT-PCR of AICDA, BLIMP-1 and RAG mRNA in immunized PBMCs; format: cell-based, human
Description: Quantitative RT-PCR was carried out with a BioRad iCycler and the 2-(ΔΔCT) method was used to calculate relative mRNA expression levels normalized to GAPDH.
AID is known to be involved in B cell affinity maturation by inducing hyper-mutation in antibody genes. Expression of BLIMP-1 represents the proliferation and differentiation of active B cell. To test the effect of TLR agonists on the expression of AID, mRNA levels of AICDA (that encoding AID) after treatment with the synthesized TLR7/8 agonist (500 nM), in comparison with that of CD40L (55 nM), was determined by quantitative RT-PCR. PBMCs were collected from two different donors (see FIG. 8, donor 3 and donor 4). […]
To test the effect of TLR7 agonist imiquimod on the expression of AICDA and BLIMP-1, mRNA levels of AICDA and BLIMP-1 after IVI in the presence of the TLR7 agonist imiquimod (500 nM), was determined by quantitative RT-PCR, in comparison with that of CD40L (FIG. 9). […]
AICDA, RAG gene expression of the harvested cells was also measured by RT-qPCR analysis respectively. […] Data are expressed as means±SEM of triplicate independent samples (****P<0.0001, **P<0.001, by 1-way ANOVA with Sidak's multiple comparisons test).

[3] = tested on: GC like B cells within PBMCs; assay: FACS analysis of GC like B cells (CD3-CD19+GL7+Fas+) after in vitro immunization; format: cell-based, human
Description: We analyzed stained cells on an […] (BD) and processed flow cytometry data with FlowJo software (Tree Star). PBMCs were collected into Snap-lock microtubes. For analysis of T cells or B cells, tubes were kept at 4° C. unless mentioned otherwise. After centrifugation, cells were washed and resuspended in PBS. For analysis of T follicular helper cells, PBMCs were stained with antibodies of CD3−FITC (BD), CD4− PerCP−Cy™5.5 (BD), CXCR5−PE/Cy7 (Biolegend), and CD45RA-PE(eBioscience), respectively. T follicular helper cells were identified with CD3^+CD4^+CXCR5^+CD45RA^−. For analysis of GC like B-cells, PBMC was stained with antibodies of CD19-PE (eBioscience), GL7− Alexa Fluor 488 (eBioscience), Fas-APC (eBioscience). GC like B-cells were defined as CD19^+GL7^+Fas^+.
After FACS sorting, GC like B cells are gated as CD3^−, CD19^+, GL7^+, Fas^+ cells. Numbers within the gates represent the GC like B cells of different groups. […] The ratio of GC like B cells is about 85.25% (FIG. 5B). Similarly, the PBMCs treated with ICOS. The ratio of GC like B cells is about 90.42% (FIG. 5C).
In the same way, PBMCs were incubated in vitro with OVA, basic, and CCL1 (1 μg/ml). After 7 days, cells were harvested, and single cell is sorting with CD19, CD3, GL7, FAS antibody as specific markers, dead cells are excluded by staining with DAPI. GC like B cells are gated as CD3−CD19+GL7+Fas+ cells. […]

With `Cl.Cl.c1cc(-c2nc3ccc(OCCCN4CCCC4)cc3o2)ccc1OCCCN1CCCC1` [E6446 dihydrochloride] the IC50 (TLR9) was 10 to 30 nM, the “effect of low concentration E6446 on IgG production with TLR7/8 agonist” value (PBMCs; E6446 0.02 uM and 0.2 uM, 500 nM synthesized TLR7/8 agonist, 14-day cultures, OVA+IL2+IL21) was “promotes the effects of TLR7/8 agonist on antibody IgG production” and the “effect of high concentration E6446 on IgG and IgM production with TLR7/8 agonist” value (PBMCs; E6446 10 uM, 500 nM synthesized TLR7/8 agonist, 7-day and 14-day cultures) was “reverses the effects of TLR7/8 agonist”. For the same molecule, the “CD21-sub-type of dendritic cells” value [1] was “inhibited”, the “concentration to inhibit R848 relative to IC50 for CpG2006” value (TLR7/8; TLR7/8 versus TLR9) was 100 fold and the “concentration required to inhibit the effect of R848 (TLR7/8 agonist)” value (TLR7/8; data not shown) was 2 to 8 µM.

In the case of `CC(C)Cn1cnc2c(N)nc3ccccc3c21` [imiquimod, reference compound], the “expression of AICDA and BLIMP-1 compared with CD40L” value ([2]; OVA, basic, agonist 500 nM, FIG. 8 and FIG. 9) is reported as “far superior to CD40L”.

B1: CCL1: Recombinant Human C-C motif chemokine 1 (protein, UniProt P22362 24-96, looked up)
C-C motif chemokine 1: KSMQVPFSRCCFSFAEQEIPLRAILCYRNTSSICSNEGLIFKLKRGKEACALDTVGWVQRHRKMLRHCPSKRK
In the case of B1, the “GL7+FAS+ cell ratio, CCL1 plus TLR7/8 and basic vs TLR7/8 and basic only” value ([3]; 7 days, FIG. 25D) is reported as “increases”, the “antigen-specific antibody production, CCL1 plus TLR7/8 agonists and basic vs TLR7/8 agonists and basic only” value (PBMCs; R848 1 μg/ml, 7 days, FIG. 25A) is reported as “significantly increased” and the “AICDA and RAG gene expression, CCL1 plus TLR7/8 and basic vs TLR7/8 and basic only” value ([2]; 7 days, RT-qPCR, FIGS. 25B-25C) is reported as “increased expression level of AICDA and RAG genes”.

B2: CD40L: CD154, CD40 Ligand protein (protein, UniProt P29965 113-261, looked up)
CD40 ligand, soluble form: MQKGDQNPQIAAHVISEASSKTTSVLQWAEKGYYTMSNNLVTLENGKQLTVKRQGLYYIYAQVTFCSNREASSQAPFIASLCLKSPGRFERILLRAANTHSSAKPCGQQSIHLGGVFELQPGASVFVNVTDPSQVSHGTGFTSFGLLKL
With B2 the “ratio of GC like B cells” value ([3]; antigen OVA 2 μg/ml, IL2 10 ng/ml + IL21 50 ng/ml (basic), sorted on day 14) was “about 85.25%”, the “regulation of IgG and IgM responses with dose” value (PBMCs; ICOS 24-100 nM, CD40L 10-55 nM, TLR7/8 agonist 0.1-500 nM, OVA, IL2, IL21) was “dose-dependent manner” and the “IgG production on co-stimulation with IL2 and IL21” value (PBMCs; OVA 4 ug/ml, IL2 10 ng/ml, IL21 50 ng/ml, 24 nM ICOS, 55 nM CD40L, 500 nM TLR7/8 agonist, 7 or 14 days) was “synergistic, complimentary effects on enhanced IgG production”.
